The molecules below were run against T1, human apelin receptor (Homo sapiens, UniProt P35414) (assay: Determination of agonism on the human apelin receptor by a calcium fluorescence assay (FLIPR)). Details: HEK293 cells stably transfected with human apelin receptor and Giaq protein, Fluo-4 calcium fluorescence, read-out: EC50 (APJ agonism).
T1 construct: expressed in transfected cells
T1 sequence (P35414 1-380): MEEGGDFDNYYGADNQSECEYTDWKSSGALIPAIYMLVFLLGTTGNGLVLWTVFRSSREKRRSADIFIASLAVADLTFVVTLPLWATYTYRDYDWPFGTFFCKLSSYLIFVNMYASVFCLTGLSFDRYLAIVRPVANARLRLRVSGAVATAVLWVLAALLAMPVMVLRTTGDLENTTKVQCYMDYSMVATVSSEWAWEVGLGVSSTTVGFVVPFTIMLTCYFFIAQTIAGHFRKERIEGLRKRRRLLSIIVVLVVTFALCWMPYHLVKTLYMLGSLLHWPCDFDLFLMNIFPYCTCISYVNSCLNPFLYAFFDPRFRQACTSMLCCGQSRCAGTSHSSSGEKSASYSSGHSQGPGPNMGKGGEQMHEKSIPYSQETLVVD
Assay type: cell-based
Summary of the method: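 Agonist EC50s come from peak intracellular calcium transients recorded by FLIPR Tetra, scaled to the 1 μM apelin-13 maximum per plate. Test system: HEK293 stably transfected with human apelin receptor plus Giaq, Fluo-4-loaded (4 μM, 1 h, 37 °C, pH 7.4 buffer with probenecid); ≥7 concentrations, triplicates.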

For `CCC(CC)n1c(Cc2cccs2)nc2cc(C(=O)N[C@@H](CC(C)C)C(=O)NCCC3CCCN3C)ccc21` (stereo partly drawn) [Example 219, 1-(1-Ethyl-propyl)-2-thiophen-2-ylmethyl-1H-benzoimidazole-5-carboxylic acid {(S)-3-methyl-1-[2-(1-methyl-pyrrolidin-2-yl)-ethylcarbamoyl]-butyl}-amide], which EC50 is on record?
The EC50 was 0.274 µM.

How did the EC50 turn out when `CCC(CC)n1c(Cc2ccoc2)nc2cc(C(=O)N[C@H](CC(=O)O)CC(C)C)ccc21` [Example 154, (S)-3-{[1-(1-Ethyl-propyl)-2-furan-3-ylmethyl-1H-benzoimidazole-5-carbonyl]-amino}-5-methyl-hexanoic acid] was run?
The EC50 was 0.27 µM.

Which EC50 does the source give for `CCC(CC)n1c(Cc2cccs2)nc2cc(C(=O)N[C@@H](CC(C)C)C(=O)Nc3cccc(N(C)C)c3)ccc21` [Example 316, 1-(1-Ethyl-propyl)-2-thiophen-2-ylmethyl-1H-benzoimidazole-5-carboxylic acid [(S)-1-(3-dimethylamino-phenylcarbamoyl)-3-methyl-butyl]-amide] here?
The EC50 was 22 µM.

`CCC(CC)n1c(Cc2cccs2)nc2cc(C(=O)N[C@@H](Cc3ccc(Cl)cc3)C(=O)O)ccc21` [Example 20, (S)-3-(4-Chloro-phenyl)-2-{[1-(1-ethyl-propyl)-2-thiophen-2-ylmethyl-1H-benzoimidazole-5-carbonyl]-amino}-propionic acid] was tested. Which EC50 did it give?
The EC50 was 1.83 µM.

How did the EC50 turn out when `CCC(CC)n1c(Cc2cccs2)nc2cc(C(=O)N[C@@H](CC(C)C)C(=O)NCCN3CCCC3)ccc21` [Example 230, 1-(1-Ethyl-propyl)-2-thiophen-2-ylmethyl-1H-benzoimidazole-5-carboxylic acid [(S)-3-methyl-1-(2-pyrrolidin-1-yl-ethylcarbamoyl)-butyl]-amide] was run?
The EC50 was 0.288 µM.

For `CCC(CC)n1c(Cc2cccs2)nc2cc(C(=O)N[C@@H](CC(C)C)C(=O)Nc3ccccc3OC)ccc21` [Example 255, 1-(1-Ethyl-propyl)-2-thiophen-2-ylmethyl-1H-benzoimidazole-5-carboxylic acid [(S)-1-(2-methoxy-phenylcarbamoyl)-3-methyl-butyl]-amide], which EC50 is on record?
Its EC50 is 6.67 µM.

Which EC50 does the source give for `CC1CCCCC1n1c(Cc2cccs2)nc2cc(C(=O)N[C@@H](CC3CCCCC3)C(=O)O)ccc21` (single isomer, unassigned) [Example 426] here?
The EC50 was 1.63 µM.

`CCC(CC)n1c(Cc2cccs2)nc2cc(C(=O)N[C@@H](CC(C)C)C(=O)NC)ccc21` [Example 381, 1-(1-Ethyl-propyl)-2-thiophen-2-ylmethyl-1H-benzoimidazole-5-carboxylic acid ((S)-3-methyl-1-methylcarbamoyl-butyl)-amide] was tested. Which EC50 did it give?
Its EC50 is 0.97 µM.

How did the EC50 turn out when `CC(C)C[C@H](NC(=O)c1ccc2c(c1)nc(Cc1ccccc1)n2C1CCCCC1C)C(=O)O` (stereo partly drawn) [Example 143, (S)-2-{[2-Benzyl-1-(2-methyl-cyclohexyl)-1H-benzoimidazole-5-carbonyl]-amino}-4-methyl-pentanoic acid] was run?
The EC50 was 2.45 µM.

Which EC50 does the source give for `CCC(CC)n1c(Cc2cccs2)nc2cc(C(=O)N[C@H](c3nnc(COC)[nH]3)C(C)C)ccc21` [Example 482, 1-(1-Ethyl-propyl)-2-thiophen-2-ylmethyl-1H-benzoimidazole-5-carboxylic acid [(S)-1-(5-methoxymethyl-2H-[1,2,4]triazol-3-yl)-2-methyl-propyl]-amide] here?
The EC50 was 15.7 µM.

How did the EC50 turn out when `CCC(CC)n1c(Cc2cccs2)nc2cc(C(=O)NC(CC3CCC(C)(C)CC3)C(=O)O)ccc21` (single isomer, unassigned) [Example 445] was run?
Its EC50 is 8.81 µM.

For `CCC(CC)n1c(Cc2cccs2)nc2cc(C(=O)N[C@@H](CC(C)C)C(=O)N(C)C3CCOCC3)ccc21` [Example 377, 1-(1-Ethyl-propyl)-2-thiophen-2-ylmethyl-1H-benzoimidazole-5-carboxylic acid {(S)-3-methyl-1-[methyl-(tetrahydro-pyran-4-yl)-carbamoyl]-butyl}-amide], which EC50 is on record?
The EC50 was 1.14 µM.

With `CCC(CC)n1c(CC2CCCC2)nc2cc(C(=O)N[C@@H](CO)CC(C)C)ccc21` [Example 176, 2-Cyclopentylmethyl-1-(1-ethyl-propyl)-1H-benzoimidazole-5-carboxylic acid ((R)-1-hydroxymethyl-3-methyl-butyl)-amide] as the molecule, how does the EC50 read?
The EC50 was 8.91 µM.

How did the EC50 turn out when `CCC(CC)n1c(Cc2cccs2)nc2cc(C(=O)N[C@@H](CC(C)C)C(=O)NCC3CCN(Cc4ccccc4)C3)ccc21` (stereo partly drawn) [Example 290, 1-(1-Ethyl-propyl)-2-thiophen-2-ylmethyl-1H-benzoimidazole-5-carboxylic acid {(S)-1-[(1-benzyl-pyrrolidin-3-ylmethyl)-carbamoyl]-3-methyl-butyl}-amide] was run?
The EC50 was 0.506 µM.

How did the EC50 turn out when `CCCOCCNC(=O)[C@H](CC(C)C)NC(=O)c1ccc2c(c1)nc(Cc1cccs1)n2C(CC)CC` [Example 385, 1-(1-Ethyl-propyl)-2-thiophen-2-ylmethyl-1H-benzoimidazole-5-carboxylic acid [(S)-3-methyl-1-(2-propoxy-ethylcarbamoyl)-butyl]-amide] was run?
The EC50 was 2.51 µM.

With `CCC(CC)n1c(Cc2cccs2)nc2cc(C(=O)N[C@@H](CC(C)C)C(=O)N3CCC[C@@H]3COC)ccc21` [Example 365, 1-(1-Ethyl-propyl)-2-thiophen-2-ylmethyl-1H-benzoimidazole-5-carboxylic acid [(S)-1-((R)-2-methoxymethyl-pyrrolidine-1-carbonyl)-3-methyl-butyl]-amide] as the molecule, how does the EC50 read?
Its EC50 is 2.75 µM.

`C[C@@H]1CCCC[C@H]1n1c(Cc2cccs2)nc2cc(C(=O)NC(CC(=O)O)C3CCCCC3)ccc21` (single isomer, unassigned) [Example 462] was tested. Which EC50 did it give?
The EC50 was 0.137 µM.

For `C[C@@H]1CCCC[C@H]1n1c(Cc2cccs2)nc2cc(C(=O)NC(CC(=O)O)CC3CCCCC3)ccc21` (single isomer, unassigned) [Example 456], which EC50 is on record?
Its EC50 is 0.152 µM.

Which EC50 does the source give for `CC[C@H](C)[C@H](NC(=O)c1ccc2c(c1)nc(Cc1cccs1)n2[C@@H]1CCCC[C@H]1C)C(=O)O` [Example 92, (2S,3S)-3-Methyl-2-{[1-((1R,2R)-2-methyl-cyclohexyl)-2-thiophen-2-ylmethyl-1H-benzoimidazole-5-carbonyl]-amino}-pentanoic acid] here?
The EC50 was less than 0.041 µM.

Which EC50 does the source give for `CCC(CC)n1c(Cc2cccs2)nc2cc(C(=O)NC(CC(C)C)C(C)(C)C(=O)O)ccc21` (stereo not shown) [Example 62, 3-{[1-(1-Ethyl-propyl)-2-thiophen-2-ylmethyl-1H-benzoimidazole-5-carbonyl]-amino}-2,2,5-trimethyl-hexanoic acid] here?
Its EC50 is 0.193 µM.

With `CCC(CC)n1c(Cc2cccs2)nc2cc(C(=O)N[C@@H](CC(C)C)C(=O)N(C)CC3CCCCO3)ccc21` (stereo partly drawn) [Example 395, 1-(1-Ethyl-propyl)-2-thiophen-2-ylmethyl-1H-benzoimidazole-5-carboxylic acid {(S)-3-methyl-1-[methyl-(tetrahydro-pyran-2-ylmethyl)-carbamoyl]-butyl}-amide] as the molecule, how does the EC50 read?
The EC50 was 1.76 µM.

For `CCC(CC)n1c(Cc2cccs2)nc2cc(C(=O)N[C@@H](CC(C)C)C(=O)NCCCN3CCN(Cc4ccccc4)CC3)ccc21` [Example 341, 1-(1-Ethyl-propyl)-2-thiophen-2-ylmethyl-1H-benzoimidazole-5-carboxylic acid {(S)-1-[3-(4-benzyl-piperazin-1-yl)-propylcarbamoyl]-3-methyl-butyl}-amide], which EC50 is on record?
The EC50 was 0.918 µM.

Which EC50 does the source give for `CCC(CC)n1c(Cc2cccs2)nc2cc(C(=O)N[C@@H](CC(C)C)C(=O)O)ccc21` [Example 114, (S)-2-{[1-(1-Ethyl-propyl)-2-thiophen-2-ylmethyl-1H-benzoimidazole-5-carbonyl]-amino}-4-methyl-pentanoic acid] here?
Its EC50 is 0.185 µM.

Which EC50 does the source give for `CCC(CC)n1c(Cc2cccs2)nc2cc(C(=O)N[C@@H](CC(C)C)C(=O)NC3CCN(Cc4ccncc4)CC3)ccc21` [Example 298, 1-(1-Ethyl-propyl)-2-thiophen-2-ylmethyl-1H-benzoimidazole-5-carboxylic acid [(S)-3-methyl-1-(1-pyridin-4-ylmethyl-piperidin-4-ylcarbamoyl)-butyl]-amide] here?
Its EC50 is 1.26 µM.

For `CCCC(CO)NC(=O)c1ccc2c(c1)nc(CC1CCCC1)n2C(CC)CC` (stereo not shown) [Example 181, 2-Cyclopentylmethyl-1-(1-ethyl-propyl)-1H-benzoimidazole-5-carboxylic acid (1-hydroxymethyl-butyl)-amide], which EC50 is on record?
The EC50 was 6.95 µM.

For `CCC(CC)n1c(Cc2cccs2)nc2cc(C(=O)N[C@@H](CC(C)C)C(=O)N3CCCC(OC)C3)ccc21` (stereo partly drawn) [Example 376, 1-(1-Ethyl-propyl)-2-thiophen-2-ylmethyl-1H-benzoimidazole-5-carboxylic acid [(S)-1-(3-methoxy-piperidine-1-carbonyl)-3-methyl-butyl]-amide], which EC50 is on record?
The EC50 was 1.83 µM.

How did the EC50 turn out when `CCC(CC)n1c(Cc2cccs2)nc2cc(C(=O)N[C@@H](CC(C)C)C(=O)NCCSC)ccc21` [Example 258, 1-(1-Ethyl-propyl)-2-thiophen-2-ylmethyl-1H-benzoimidazole-5-carboxylic acid [(S)-3-methyl-1-(2-methylsulfanyl-ethylcarbamoyl)-butyl]-amide] was run?
Its EC50 is 1.33 µM.

For `CCC(CC)n1c(Cc2cccs2)nc2cc(C(=O)N[C@@H](CC(C)C)C(=O)N3CCC(N(CC)CC)C3)ccc21` (stereo partly drawn) [Example 329, 1-(1-Ethyl-propyl)-2-thiophen-2-ylmethyl-1H-benzoimidazole-5-carboxylic acid [(S)-1-(3-diethylamino-pyrrolidine-1-carbonyl)-3-methyl-butyl]-amide], which EC50 is on record?
Its EC50 is 0.362 µM.

Source: patent US9156796B2, “Benzoimidazole-carboxylic acid amide derivatives as APJ receptor modulators” (SANOFI, priority 2013, dated 2015)
